The source of these data is paper PMC7477407, “In vivo studies of a peptidomimetic that targets EGFR dimerization in NSCLC” (Journal of Cancer, 2020).

Like-named read-outs stand apart in the source and are kept apart here. Numbered stars: 1 amine (or outer) side, 2 acyl side, 3 side chain; on linkers, the order of the positions; unused ones are H or OH. Square brackets hold non-standard residues; d marks the D form. Peptide text beside a SMILES is read from it. βAla(3R-(1-naphthyl)) = O=C(C[C@@H](N[*:1])c1cccc2ccccc12)[*:2] Where only a bound is given, the exact number is not on record here.

The conditions of series [1]: mouse, in vivo, iv.
Experimental: (§10) Female Foxn1-nude, 6-7 week-old mice (Envigo) were used in all studies.
(§11) After administration of the compound, mice were sacrificed at certain time intervals (0, 0.25, 0.75, 2, 4, 6, 12 and 24 h), and blood samples were taken to study the amount of compound remaining in blood circulation. The samples were then centrifuged at 1000 rpm for 5 min. The separated supernatant serum samples were precipitated by acetonitrile to extract the analytes and passed through the Sep-Pak (Waters) column. Chromatographic separation was performed on an HPLC. Mass spectrometry was used to identify the correct molecular ion of the intact compound.
(§12) Blood samples were collected at different time intervals, and analysis of the sample was accomplished using HPLC and mass spectrometry. […] For pharmacokinetic parameter analysis, PKSolver software was used [50]. […] Based on the AIC, SC, and curve fitting by the PKSolver software, intravenous bolus administration/two compartmental model was selected for deriving our reported pharmacokinetic parameters.
Series [2] concerns lung, heart, kidney, liver tissue. It is filed as in vivo, mice. The settings on record: for Lung histology (H&E) compared to vehicle: day 35, 18 6 mg/kg, lapatinib 10 mg/kg. As for the experimental part:
For histopathological analysis, lungs, kidney, liver, heart, and pancreas were excised from the mice and fixed with 10% normal formalin solution. These fixed samples were embedded in paraffin, and slides were prepared by cutting them into 5 μm slices and mounting on the glass. Prepared slides were stained using hematoxylin and eosin (H&E) staining. Slides were visualized under a microscope (Nikon labophot 2. Type120) and pictures were taken at different magnifications for analysis. Representative pictures from histopathology analysis were used for presentation.

The next series relates to MCF-10A. On the set-up: method as in ref 20 (a number printed in a supplementary file, which may have a reference list of its own: not looked up in the article's list). Particulars: MCF-10A non-cancerous breast cell line, basal HER2; read-out: IC50, antiproliferative activity in MCF-10A; cited from earlier work.
For the next series, the system named is MCF-7. Particulars: MCF-7 breast cancer, HER2-; read-out: IC50, antiproliferative activity in MCF-7; cited from earlier work.
Series [3] is described as follows: in vitro. The settings on record: simulated gi fluid.
Experimental: (§13) Simulated intestinal fluid TS and simulated gastric fluid were purchased from Ricca Chemical (Arlington, TX). Pepsin (0.32 g/100 ml) was added to the simulated gastric fluid. To determine the effect of simulated gastric and intestinal fluids on 18, it (10µM) was incubated in gastric fluid with pepsin for 6 h and intestinal fluid for 12 h at 37 °C. Samples were taken at particular time intervals and analyzed using the HPLC method [33]. Methods used were similar to the methods explained above for HPLC analysis.
The subject of the next series is SKBR-3. On the set-up: method as in ref 20 (Kanthala et al. Oncotarget 8(43):74244-74262). The settings on record: SKBR-3 breast cancer, HER2+; ref 20 (Kanthala et al. Oncotarget 8(43):74244-74262); read-out: IC50, antiproliferative activity in SKBR-3; cited from earlier work.
Another series deals with T1, HER2:HER3 dimerization (Homo sapiens, UniProt P04626).
T1 construct: from tissue; host or cells: Lung tumour tissue of nude mice injected IV with A549-Red-FLuc human NSCLC cells
The series can be described thus: Proximity ligation assay on lung tumor tissue, HER2:HER3. It is filed as in vivo, mice. The settings on record: 6 mg/kg, vs vehicle control. Here is the method:
(§1) The lung tissue samples with tumors were fixed on the slides. […] Antigen retrieval on the tissue section of slides was done in a steaming sodium citrate buffer (10 mM, 0.05% Tween 20, pH 6.0) for 15 min. Tissue slides were incubated with primary antibodies overnight at 4 °C and washed, and secondary antibodies PLA+ and PLA- were added. After incubation and washing, PLA detection reagents were added, [36]. The mounting medium was then added, and the slides were coverslipped. Slides were viewed using an Olympus BX63 fluorescence microscope fitted with deconvolution optics using DAPI, and Texas Red filters. Images were obtained at 40×.

Series [4] has as its system phosphorylated HER2 protein (p-HER2). Nature of the series: Western blot of HER2 phosphorylation in A549 cells. It is filed as cell-based, human. The settings on record: 2 µM, 36 h, Western blot densitometry. Here is the method: (§2) A549 cells were treated with 2 µM 18 or 2 µM lapatinib (positive control). Cells without treatment were employed as a negative control. Cells were treated for 36 h, washed, and trypsinized. 35 μg of protein from each sample was loaded on Novex® 4-20% tris-glycine gels and transferred into nitrocellulose membranes. The membranes were blocked with 2% bovine serum albumin solution and incubated with primary antibodies overnight at 4 °C. Antibodies for the detection of total HER2 protein (t-HER2), phosphorylated HER2 protein (p-HER2), total AKT (t-AKT); (Cell Signaling Technology, phosphorylated AKT (P-Akt, S473); (Cell Signaling Technology) were used at 1:1000 dilution. Secondary antibodies with HRP conjugation was incubated for 1 h. After the addition of the substrate and enhancer solutions from a super signal enhanced chemiluminescence kit (Pierce, Rockford, IL) to the membrane, images were captured using ChemiDoc™ Touch Gel Imaging System (Bio-Rad), and band densities were quantified. A representative Western blot image was used for the final presentation. Data are from triplicates and are presented as the mean ± standard error of the mean (SEM). To evaluate the significance, statistical analysis was performed by a one-tail T-test using Prism Graph Pad (GraphPad Software, San Diego). P< 0.05 was considered statistically significant, [32].
In general terms: A western blot detects proteins with antibodies after separation by electrophoresis.

The next series addresses T2, EGFR:HER2 dimerization (Homo sapiens, UniProt P04626).
T2 construct: from tissue; host or cells: Lung tumour tissue of nude mice injected IV with A549-Red-FLuc human NSCLC cells
Nature of the series: Proximity ligation assay on lung tumor tissue, EGFR:HER2. It is filed as in vivo, mice. Particulars: 6 mg/kg, vs vehicle control. As for the experimental part:
as §1

Series [5] is described as follows: in vitro. The settings on record: simulated gi fluid. This is another data set of the same source.
Experimental: as §13
In series [6] the target is human serum albumin (HSA) (Homo sapiens, UniProt P02768).
Experimental: Surface plasmon resonance analysis was performed in 0.01 M phosphate-buffered saline (NaCl 0.138 M; KCl -0.0027 M); Tween® 20 -0.05%, pH 7.4 using a Reichert Life Sciences System. Immobilization of HSA to the hydrophilic carboxymethylated dextran matrix of the CM5 sensor chip was carried out by the standard primary amine coupling method. […] All binding experiments were performed at a flow rate of 25 µL/min. After each interaction analysis, the sensor chip was regenerated with water. […] The Kd values were obtained using the 1:1 kinetic evaluation fitting tool of Tracedrawer software.
The test system of a further series is HER2 expression. On the set-up: method as in ref 20 (a number printed in a supplementary file, which may have a reference list of its own: not looked up in the article's list). The settings on record: HER2-positive breast cancer xenograft, 4 mg/kg IV; cited from earlier work.
The subject of series [7] is A549 Red-FLuc lung tumors. Nature of the series: Antitumor assessment, experimental metastasis lung cancer model, bioluminescence imaging. It is filed as in vivo. The settings on record: 18 6 mg/kg, lapatinib 10 mg/kg, twice a week; A549-Red-FLuc lung tumors in nude mice. As for the experimental part: All animal studies were conducted in accordance with NIH guidelines for care, and use of laboratory animals and protocols were approved by the Institutional Animal Care and Use Committee at the University of Louisiana Monroe. Bioware® Brite Cell Line A549 Red-FLuc cells that had been engineered to express firefly luciferase (Perkin Elmer) were injected into the tail vein (4.5 × 10^6 cells in 200 µl PBS per mouse) of 6-week-old Foxn1^nu-nude mice. For bioluminescence imaging, mice were anesthetized with 1-3% isoflurane and 150 mg/kg of D-luciferin (PerkinElmer) in phosphate-buffered saline (PBS) was given by intraperitoneal injection. 8 min after injection, bioluminescence was imaged with an IVIS Lumina III Series (PerkinElmer), and regions of interest (ROI) were drawn around the bioluminescent signals and quantified as photons/second (p/s). Mice with tumors were divided into three groups viz. control (vehicle), 18 treatment, and lapatinib treatment. After two weeks of the inoculation of tumor cells, mice from the respective groups were injected intravenously with 18 (6 mg/kg) or lapatinib (10 mg/kg) or vehicle twice a week for the next three weeks. To evaluate the effect of the treatments, tumors were imaged, and bioluminescence was measured once a week. […]

Another series concerns A549 cells. The settings on record: read-out: IC50, antiproliferative activity in A549; A549 NSCLC, HER2+; 72 h, serum-free medium, CellTiter-Glo. For orientation: ATP-based viability assays read luminescence as a measure of living cells.
A short description of the next series: physchem. Particulars: buffer, pH 1.
In the next series the test system is NCI-H1975. Particulars: read-out: IC50, antiproliferative activity in NCI-H1975; NCI-H1975 EGFR mutated NSCLC cell line. As for the experimental part: (§3) In a 96-well plate, 1 × 10^4 cells/well were seeded and incubated overnight at 37 °C and 5% CO2. The stock solution of the peptidemimetic was prepared by dissolving them in DMSO. Stock solutions of the compound and controls were diluted using the serum-free medium to prepare solutions of different concentrations of compounds with DMSO concentration not exceeding 1% (v/v) in the final solution in each well of a 96-well plate. […] A dose-response curve was generated using percentage cell viability vs. log concentration of compounds, and IC50 values were obtained using Prism® (GraphPad Software). Experiments were repeated three times to obtain standard deviation values.
(§4) In vivo Studies of a Peptidomimetic that Targets EGFR
(§5) Leeza Shrestha1, Sitanshu Singh1, Pravin Parajuli1, Achyut Dahal1, George Mattheolabakis1,
(§6) Sharon Meyer1, Joydeep Bhattacharjee2, Seetharama Jois1*
(§7) 1School of Basic Pharmaceutical and Toxicological Sciences, College of Pharmacy, University
(§8) of Louisiana Monroe, Monroe, LA 71201.
(§9) 2Biology Program, School of Sciences, University of Louisiana Monroe, Monroe, LA 71029.

In the next series the test system is SKOV-3. The settings on record: read-out: IC50, antiproliferative activity in SKOV-3; SKOV-3 ovarian cancer, HER2+. Here is the method: as §3, §4, §5, §6, §7, §8, §9
For series [8] the following is noted: mouse, in vivo, iv. The source holds these as a separate data set.
Experimental: as §10, §11, §12
For series [9] the following is noted: 25 to 80 °C, 18 μM.
Experimental: Circular dichroism experiments were done using a Jasco J-815 CD Spectrometer (Jasco, Japan) at temperatures from 20 to 80 °C with a gradual 5 °C increase before reading. […] The spectra for samples were recorded from 185-350 nm wavelengths with a total of four scans for each temperature, and wavelength vs. ellipticity was plotted for an average of four scans.
The next series relates to HER2 phosphorylation. The series can be described thus: Western blot of HER2 phosphorylation in lung tumor tissue. It is filed as in vivo, mice. Particulars: tumors harvested day 35; 18 6 mg/kg, lapatinib 10 mg/kg. As for the experimental part: as §2, with “Data are from triplicates and are presented as the mean ± standard error of the mean (SEM). To evaluate the significance, statistical analysis was performed by a one-tail T-test using Prism Graph Pad (GraphPad Software, San Diego). P< 0.05 was considered statistically significant, [32].” left out
All animal studies were conducted in accordance with NIH guidelines for care, and use of laboratory animals and protocols were approved by the Institutional Animal Care and Use Committee at the University of Louisiana Monroe. […] To evaluate the effect of the treatments, tumors were imaged, and bioluminescence was measured once a week. […]

Series [10] deals with phosphorylated AKT (P-Akt, S473). The series can be described thus: Western blot of Akt phosphorylation in A549 cells. Particulars: 2 µM, 36 h, Western blot densitometry. It is filed as cell-based, human. As for the experimental part: as §2

Sequence of human serum albumin (HSA) (P02768 25-609): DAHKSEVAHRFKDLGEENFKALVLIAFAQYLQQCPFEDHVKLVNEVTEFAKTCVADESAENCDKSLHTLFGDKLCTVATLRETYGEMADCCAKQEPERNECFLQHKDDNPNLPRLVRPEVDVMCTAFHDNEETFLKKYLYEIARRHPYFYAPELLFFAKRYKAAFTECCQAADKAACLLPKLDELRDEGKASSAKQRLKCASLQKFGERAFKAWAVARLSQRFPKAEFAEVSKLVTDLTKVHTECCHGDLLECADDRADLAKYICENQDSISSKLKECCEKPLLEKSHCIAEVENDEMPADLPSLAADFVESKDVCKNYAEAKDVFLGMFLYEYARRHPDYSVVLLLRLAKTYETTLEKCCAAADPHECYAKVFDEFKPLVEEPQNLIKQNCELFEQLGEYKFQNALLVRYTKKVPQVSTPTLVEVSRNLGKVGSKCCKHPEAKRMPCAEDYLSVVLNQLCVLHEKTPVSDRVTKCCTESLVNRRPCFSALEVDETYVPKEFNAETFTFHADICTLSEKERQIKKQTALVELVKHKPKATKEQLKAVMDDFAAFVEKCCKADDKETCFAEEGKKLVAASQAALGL
T2 sequence (P04626 23-1255): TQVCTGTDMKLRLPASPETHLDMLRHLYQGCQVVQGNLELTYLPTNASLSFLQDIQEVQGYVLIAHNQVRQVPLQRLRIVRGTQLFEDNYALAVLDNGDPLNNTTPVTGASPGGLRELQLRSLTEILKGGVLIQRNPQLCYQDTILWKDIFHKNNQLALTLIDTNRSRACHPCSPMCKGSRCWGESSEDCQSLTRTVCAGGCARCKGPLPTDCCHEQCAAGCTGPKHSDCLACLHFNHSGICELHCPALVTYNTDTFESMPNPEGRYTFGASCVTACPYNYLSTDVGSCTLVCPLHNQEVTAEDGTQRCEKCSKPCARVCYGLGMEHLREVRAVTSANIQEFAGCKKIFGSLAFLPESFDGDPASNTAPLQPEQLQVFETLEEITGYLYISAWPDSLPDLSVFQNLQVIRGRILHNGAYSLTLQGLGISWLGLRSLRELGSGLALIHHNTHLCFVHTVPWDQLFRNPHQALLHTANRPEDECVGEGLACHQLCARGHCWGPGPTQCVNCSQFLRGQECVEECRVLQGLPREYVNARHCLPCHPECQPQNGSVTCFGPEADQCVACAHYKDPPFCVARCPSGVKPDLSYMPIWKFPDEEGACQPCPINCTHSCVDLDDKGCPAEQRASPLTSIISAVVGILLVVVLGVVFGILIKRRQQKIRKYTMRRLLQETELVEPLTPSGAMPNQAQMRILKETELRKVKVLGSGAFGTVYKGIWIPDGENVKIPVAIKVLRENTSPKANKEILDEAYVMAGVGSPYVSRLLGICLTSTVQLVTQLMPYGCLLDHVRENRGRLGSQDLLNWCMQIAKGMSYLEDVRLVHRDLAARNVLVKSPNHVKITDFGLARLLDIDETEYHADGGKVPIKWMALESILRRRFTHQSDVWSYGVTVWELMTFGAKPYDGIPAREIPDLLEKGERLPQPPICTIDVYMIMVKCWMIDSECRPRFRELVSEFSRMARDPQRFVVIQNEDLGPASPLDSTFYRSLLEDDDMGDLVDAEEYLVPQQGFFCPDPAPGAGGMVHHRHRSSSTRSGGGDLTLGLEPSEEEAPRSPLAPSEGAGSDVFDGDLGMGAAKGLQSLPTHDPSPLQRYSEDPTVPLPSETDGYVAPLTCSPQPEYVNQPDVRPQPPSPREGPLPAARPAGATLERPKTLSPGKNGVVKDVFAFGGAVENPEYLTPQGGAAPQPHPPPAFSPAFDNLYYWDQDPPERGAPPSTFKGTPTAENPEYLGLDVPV
T1 sequence (P04626 23-1255): as above
Text for physchem: Shimadzu FCV-20AH2 manual injector was used with Ultra C18, 5 µm (250 × 4.6 mm) column, Shimadzu SPD-20A UV/Vis detector, and Shimadzu LC-20AP pump. 40% acetonitrile (0.1% TFA) with 60% water (0.1% TFA) was used as mobile phase. Relative Peak area was plotted as % remaining compound with respect to time compared with zero time point, and data are from triplicate experiments. For pH stability, a buffer with pH 1 was obtained by adding 0.1 M HCl, and a buffer with pH 7.5 was obtained by adding 0.1 M PBS (Sigma).

Take `N=C(N)NCCC[C@@H]1NC(=O)[C@H]2CCCN2C(=O)[C@@H]2CCCN2C(=O)[C@H](CCCNC(=N)N)NC(=O)C[C@H](c2cccc3ccccc23)NC(=O)[C@H](Cc2ccccc2)NC(=O)[C@H](CC(=O)O)NC(=O)[C@H](CC(=O)O)NC(=O)[C@H](Cc2ccccc2)NC(=O)C[C@H](c2cccc3ccccc23)NC1=O` [Compound 18] (cyclo(DDF[βAla(3R-(1-naphthyl))]RP[dP]R[βAla(3R-(1-naphthyl))]F)): the Vd peripheral in series [1] was approximately 17 mL. In [2] (6 mg/kg, three weeks of treatment), the “Toxicity to organs (heart, liver, lung, kidney), H&E” value is “no significant tissue damage or toxic effects”. Also, the “Lung histology (H&E) compared to vehicle” value in [2] was “remarkably fewer tumors and less inflammatory infiltration”. The IC50 (usually the midpoint of a concentration-inhibition curve) with MCF-10A was 40 µM; in the series with MCF-7, more than 50 µM; in the series with SKBR-3, 194 ± 46 nM; in the series with A549 cells, 868 ± 32 nM; in the series on NCI-H1975, 4.85 ± 0.217 µM; in the series with SKOV-3, 853 ± 102 nM. In addition, the share remaining (usually the share of the starting amount still present when the sample was taken) at 6 h, 10 µM in “in vitro [3]” is more than 80%. At HER2:HER3 dimerization, the “HER2:HER3 dimerization in lung tumor tissue (PLA red fluorescence)” value is given as “reduction in red fluorescence”. Besides, the “Inhibition of phosphorylation of HER2 compared to control” value in series [4] worked out at 41.6%. In addition, the “EGFR:HER2 dimerization in lung tumor tissue (PLA red fluorescence)” value at EGFR:HER2 dimerization was “reduction in red fluorescence”. In “in vitro [5]”, this compound returned a fraction remaining at 12 h, 10 µM of more than 40%. The “Compound in free form” value in [6] is listed as approximately 22%. For the same compound, in the series with HER2 expression, the “Change in HER2 expression in xenograft tumor tissue” value is “no”. For the same compound, the “Rate of tumor growth indicated by total flux compared with vehicle” value in series [7] was “decreased”. For the same compound, the fraction remaining at 720 h in “physchem” is more than 40%. Also, the AUC(0-inf) (commonly the area under the concentration-time curve extrapolated to infinity) in series [8] was approximately 459 µg·h/mL. In addition, in [8], the Vd – broadly, the apparent volume that relates the amount in the body to the concentration in plasma or blood – is approximately 0.011 L. In addition, the clearance (in general, the rate of elimination divided by the concentration) in [8] is approximately 0.00433 mL/min. Moreover, the half-life (usually the time needed for the level to fall by half in the phase considered) in series [8] (4 mg/kg, Terminal half-life) was approximately 2520 min; in [8] (6 mg/kg, Terminal half-life), approximately 2760 min; in series [8] (Distribution half-life) it was approximately 48 min; in [8] (Terminal half-life in vivo), more than 2400 min. Also, in series [9], the “Change of circular dichroism spectra (backbone conformation) with temperature” value was “did not show any significant change”. The “Time after which concentration decreases significantly at pH 1” value (pH 1) is more than 4 days. The “Stability at pH 7.5” value (pH 7.5) is given as “stable for 30 days”. The “HER2 phosphorylation in lung tumor tissue compared to control” value with HER2 phosphorylation is on record as “inhibited HER2 phosphorylation to a significant extent”. The “Inhibition of phosphorylation of Akt compared to control” value in [10] is 24.7%.
`CS(=O)(=O)CCNCc1ccc(-c2ccc3ncnc(Nc4ccc(OCc5cccc(F)c5)c(Cl)c4)c3c2)o1` [lapatinib, reference compound]: in [2], the “Lung histology (H&E) compared to vehicle” value was “remarkably fewer tumors and less inflammatory infiltration”. The “Rate of tumor growth indicated by total flux compared with vehicle” value in [7] is recorded as “decreased”. For the same compound, the “HER2 phosphorylation in lung tumor tissue compared to control” value in the series with HER2 phosphorylation is given as “inhibited HER2 phosphorylation to a significant extent”.
